This is an account of results in the Deep4Chem optical property database.

Structures are written as SMILES.

The data set can be described thus: solvent given as SMILES.
The mark [1] stands for this setting: in O=P(c1ccccc1)(c1ccccc1)c1ccccc1Oc1ccccc1P(=O)(c1ccccc1)c1ccccc1.

Take `FC(F)(F)c1cc2n(n1)[B-]1(c3ccccc3Oc3ccccc31)[n+]1ccc3ccccc3c1-2`: the fluorescence lifetime (in C1CCCCC1) was 1.79 ns, the fluorescence lifetime (in Cc1ccccc1) turned out to be 1.85 ns and the fluorescence lifetime (in ClCCl) came out at 2.45 ns. `CC(C)(C)c1ccc2c(c1)c1cc3c4cc(C(C)(C)C)ccc4c4c5c6ccc(C(C)(C)C)cc6c6cc7c8cc(C(C)(C)C)ccc8c8c2c1c(c34)c(c78)c65`: the fluorescence lifetime runs as follows: (in CCCCCC) 0.61 ns; (in CCOCC) 0.618 ns; (in Cc1ccccc1) 0.606 ns. Regarding `CCCCn1c(-c2ccc(-c3nnc(-c4ccccc4)o3)cc2)nc(-c2ccccc2)c1-c1ccccc1`, under “in ClCCl”, the fluorescence lifetime turned out to be 1.76 ns. The compound `CCCCNc1nc(/C=C/c2ccccc2)[n+]([O-])c2c1CCCC2` displayed a fluorescence lifetime (in ClCCl) of 8.9 ns.

As for `CC(C)(C)c1ccc2c(c1)B1c3cc(C(C)(C)C)ccc3Oc3cc(N4c5ccccc5C(C)(C)c5ccccc54)cc(c31)O2`, the fluorescence lifetime (in Cc1ccccc1) is 6.6 ns. Consider `Fc1ccc(N(c2ccccc2)c2ccc3ccc4c(N(c5ccccc5)c5ccc(F)cc5)ccc5ccc2c3c54)cc1`, for which the fluorescence lifetime (in ClCCl) came to 5.5 ns. In the case of `N#Cc1c(-n2c3ccccc3c3cc(I)ccc32)c(C#N)c(-n2c3ccccc3c3cc(I)ccc32)c(-n2c3ccccc3c3cc(I)ccc32)c1-n1c2ccccc2c2cc(I)ccc21`, for the setting “in Cc1ccccc1”, the fluorescence lifetime was found to be 0.4 ns. On to `COc1ccc(-c2cc3c(s2)c(C(C)=O)cc(=O)n3C)cc1`, for which the fluorescence lifetime (in ClCCl) stood at 1.51 ns.

`Nc1cccc2cc3ccccc3cc12` yielded a fluorescence lifetime (in C1CCCCC1) of 29 ns. In the case of `Cc1cc2nc3c(=O)n(C)c(=O)n(C)c3nc2cc1C`, where the note is “in CC#N”, the fluorescence lifetime came to 0.64 ns.

As to `N#Cc1ccc(N(c2ccc(C#N)cc2)c2ccc3c4cccc5c(N(c6ccc(C#N)cc6)c6ccc(C#N)cc6)ccc(c6cccc2c63)c54)cc1`, under “in ClCCl”, the fluorescence lifetime turned out to be 3.54 ns.

`CC1=CC(/C=C/c2ccc(N(C)C)cc2)=[N+]2C1=C(c1ccc(C#CCO[C@@H]3O[C@H](CO)[C@@H](O)C(O)[C@H]3O)cc1)c1c(C)cc(/C=C/c3ccc(N(C)C)cc3)n1[B-]2(F)F` (some centres undefined): the fluorescence lifetime (in CC#N) turned out to be 2.3 ns. In turn, `CC1(C)CC(/C=C/c2ccc(N3CCOCCOCCOCCOCC3)cc2)=CC(=C(C#N)C#N)C1` gave a fluorescence lifetime (in CCO) of 0.79 ns. Where the note is “in ClCCl”, `N#C/C(=C(/C#N)c1ccc(-c2ccncc2)cc1)c1ccc(-c2ccncc2)cc1` registered a fluorescence lifetime of 0.1 ns.

For `Cc1nnc(-c2ccc(-n3c4ccccc4c4ccccc43)cc2)o1`, the fluorescence lifetime (in CCO) came out at 2.07 ns. Regarding `CN(C)c1ccc2ccc3oc(=O)c(-c4ccccc4)nc3c2c1`, the fluorescence lifetime (in c1ccccc1) was determined as 7.2 ns. As to `Cc1ccc(/C2=c3\cc/c(o3)=C(\c3ccc(C)cc3)c3ccc([nH]3)-c3ccc4n3[P-](=O)(=O)[N+]3=C(C=CC3=C4c3cccs3)c3ccc2[nH]3)cc1`, the fluorescence lifetime (in ClC(Cl)Cl) was determined as 4.3 ns. Turning to `Cc1cccc(Nc2ccccc2C(=O)O)c1C`, the fluorescence lifetime (in C1CCCCC1) stood at 2.7 ns; the fluorescence lifetime (in C1CCOC1) worked out at 4.91 ns; the fluorescence lifetime (in C1COCCO1) was found to be 2.38 ns; the fluorescence lifetime (in CC#N) was found to be 0.558 ns; the fluorescence lifetime (in CCOC(C)=O) came out at 2.46 ns; the fluorescence lifetime (in CN(C)C=O) came to 2.22 ns. Where the note is “in Cc1ccccc1”, `c1ccc(-c2cc(-c3ccccc3)cc(-c3ccc4c(c3)C3(c5ccccc5-4)c4ccccc4-c4c3c3c5ccccc5c(-c5cc(-c6ccccc6)cc(-c6ccccc6)c5)cc3c3ccccc43)c2)cc1` (centres undefined) came in with a fluorescence lifetime of 2.14 ns. Consider `O=C([O-])c1ccccc1-c1c2cc(I)c(=O)c(I)c-2oc2c(I)c([O-])c(I)cc12`, for which the fluorescence lifetime reads like this: (in CC(C)O) 0.66 ns; (in CCO) 0.565 ns; (in CO) 0.5 ns; (in O) 0.115 ns. Regarding `COC(=O)c1ccccc1-c1c2ccc(=[NH2+])cc-2oc2cc(N)ccc12`, the fluorescence lifetime (in CC#N) was found to be 4.1 ns, the fluorescence lifetime (in CCO) was 3.99 ns, the fluorescence lifetime (in CN(C)C=O) turned out to be 3.74 ns and the fluorescence lifetime (in O) is 4.2 ns. On to `COc1ccc(-c2c3cc4cc(C)sc4cc3c(-c3ccc(OC)cc3)c3cc4cc(C)sc4cc23)cc1`, for which the fluorescence lifetime (in ClCCl) turned out to be 9.7 ns. Take `Cc1cc(-c2nnc(-c3ccccc3)o2)ccc1-n1c2ccccc2c2ccccc21`: for the setting “in CCO”, the fluorescence lifetime is 1.82 ns.

In the case of `CC(=O)O[B-]1(OC(C)=O)OC(/C=C/C=C/c2ccccc2)=CC(/C=C/C=C/c2ccccc2)=[O+]1`, the fluorescence lifetime runs as follows: (in C1CCOC1) 2.38 ns; (in CC#N) 1.81 ns; (in CC(C)=O) 1.77 ns; (in CS(C)=O) 2.03 ns; (in Cc1ccccc1) 2.57 ns; (in ClC(Cl)Cl) 1.93 ns. The fluorescence lifetime (in ClCCl) was 1.84 ns. As for `COCCOCCOCCN1C(=O)c2cc(NCCOCCO)c3c4c(cc(NCCOCCO)c(c24)C1=O)C(=O)N(CCOCCOCCOC)C3=O`, the fluorescence lifetime reads like this: (in CO) 8.2 ns; (in ClC(Cl)Cl) 9.6 ns; (in O) 4.3 ns. As to `Cc1ccc(-c2cc(-c3ccc(N(C)C)cc3)c3c(N)nc(N4CCCC4)c(C#N)c3n2)cc1`, the fluorescence lifetime runs as follows: (in CC#N) 7.3 ns; (in CC(C)=O) 10.3 ns; (in CC(C)O) 11.2 ns; (in CO) 3.6 ns; (in ClC(Cl)Cl) 11.5 ns; (in ClCCl) 12.6 ns. This compound also had a fluorescence lifetime (in c1ccccc1) of 10.7 ns. `COc1ccc(-c2c3ccccc3c(C#Cc3ccccc3)c3cc4ccccc4cc23)cc1`: under “in ClCCl”, the fluorescence lifetime was 9.7 ns. On to `COc1cc2cc(OC)c(-c3ccc([N+](=O)[O-])cc3)cc2cc1-c1ccc([N+](=O)[O-])cc1`, for which the fluorescence lifetime reads like this: (in ClC(Cl)Cl) 0.62 ns; (in ClCCl) 0.53 ns. As to `C#CCn1c2ccccc2c2cc(/C=C/c3cc(C)c4n3[B-](F)(F)[N+]3=C(C)C=C(C)C3=C4c3ccc(I)cc3)ccc21`, the fluorescence lifetime is 4.03 ns (in CC#N), 3.64 ns (in CS(C)=O) and 3.93 ns (in ClC(Cl)Cl). With `c1ccc(-c2nc(-c3ccccc3)nc(-c3ccc(N4c5ccccc5C5(c6ccccc6-c6ccccc65)c5ccccc54)cc3)n2)cc1`, the fluorescence lifetime under setting [1] came out at 33 ns. For the compound `CCN(CC)c1ccc2c(c1)oc(=O)c1cc3c(C)nn(-c4ccccc4)c3nc12`, where the note is “in ClCCl”, the fluorescence lifetime is 17.1 ns. `CC(C)(C)[Si](C)(C)c1cccc2ccccc12` had a fluorescence lifetime (in C1CCCCC1) of 56 ns.

Regarding `CCCCCCCCCCOc1ccc(C#Cc2ccc(C#Cc3ccc(OCCCCCCCCCC)c(OCCCCCCCCCC)c3)c3nc4c5ccccc5c5ccccc5c4nc23)cc1OCCCCCCCCCC`, the fluorescence lifetime runs as follows: (in C1CCOC1) 8.24 ns; (in Cc1ccccc1) 7.1 ns; (in ClCCl) 8.66 ns. Regarding `O=Cc1ccc(C2=C3C=c4c(oc5ccccc45)=[N+]3[B-](F)(F)n3c2cc2c4ccccc4oc23)cc1`, the fluorescence lifetime was 2.47 ns (in C1CCCCC1); 2.09 ns (in C1CCOC1); 2.38 ns (in CC#N); 2.12 ns (in CCOC(C)=O); 2.3 ns (in CN(C)C=O); 2.73 ns (in CO). Besides, the fluorescence lifetime was found to be 2.44 ns (in Cc1ccccc1) and 2.49 ns (in ClCCl). Consider `CC(=O)OCCOCCN1C(=O)c2cc(NCCOCCO)c3c4c(cc(NCCOCCO)c(c24)C1=O)C(=O)N(CCOCCOC(C)=O)C3=O`, for which the fluorescence lifetime was found to be 8 ns (in CO), 9.6 ns (in ClC(Cl)Cl) and 4.4 ns (in O). `CC(C)(C)c1ccc(C2=C(c3ccc(-n4c5ccc(C(C)(C)C)cc5c5cc(C(C)(C)C)ccc54)cc3)S(=O)(=O)c3c2sc(-c2ccc(-n4c5ccc(C(C)(C)C)cc5c5cc(C(C)(C)C)ccc54)cc2)c3-c2ccc(C(C)(C)C)cc2)cc1` showed a fluorescence lifetime (in C1CCOC1) of 1.1 ns. Where the note is “in ClCCl”, `COc1ccc(/C=C/C2=C3CCc4ccccc4C3=[O+][B-](F)(F)O2)cc1` registered a fluorescence lifetime of 0.24 ns.

`CCCCC(CC)CN1C(=O)c2cc(Oc3ccc(C(C)(C)C)cc3)c3c4c(Cl)cc5c6c(cc(Cl)c(c7c(Oc8ccc(C(C)(C)C)cc8)cc(c2c37)C1=O)c64)C(=O)N(c1c(C(C)C)cccc1C(C)C)C5=O` (centres undefined): under “in Cc1ccccc1”, the fluorescence lifetime came to 6.73 ns.

Take `F[B-]1(F)n2c(c3cccc4cccc2c43)=Nc2sc3ccccc3[n+]21`: the fluorescence lifetime (in ClCCl) came to 6.6 ns. The same measure, in the same setting: the result for `COc1ccc(/C=C/c2nc(N3CCOCC3)c3c([n+]2[O-])CCCC3)cc1` reads 8.3 ns. For the setting “in ClC(Cl)Cl”, `CC1=CC(C)=[N+]2C1=C(c1ccc(I)cc1)c1c(C)cc(C)n1[B-]2(F)F` yielded a fluorescence lifetime of 3.11 ns. `CC(C)c1cc(C(C)C)c(B2c3ccccc3Oc3cc(-n4c5ccccc5c5ccc6c(c7ccccc7n6-c6ccccc6)c54)ccc32)c(C(C)C)c1`: the fluorescence lifetime worked out at 29.6 ns (in CC(C)c1cc(C(C)C)c(-c2ccc(-n3c4ccccc4n4c5ccccc5nc34)nc2)c(C(C)C)c1) and 27 ns under setting [1]. `COCCOCCOCCOCC(COCCOCCOCCOC)Oc1cc(/C=C/c2ccc(/C=C(\C#N)c3ccccc3)cc2)c(OC(COCCOCCOCCOC)COCCOCCOCCOC)cc1/C=C/c1ccc(/C=C(\C#N)c2ccccc2)cc1` gave a fluorescence lifetime (in ClCCl) of 1.6 ns.

`Cc1cc(C)c2nc3c(=O)n(C)c(=O)nc-3n(C)c2c1` registered a fluorescence lifetime (in CC#N) of 3.9 ns. For the compound `COc1ccc(C2=Cc3ccc4ccccc4[n+]3[B-](F)(F)O2)cc1`, the fluorescence lifetime (in ClC(Cl)Cl) came to 2.3 ns. With `c1ccc(-c2nc(-c3ccccc3)nc(-c3ccc(-c4ccc(N5c6ccccc6[Si](c6ccccc6)(c6ccccc6)c6ccccc65)cc4)cc3)n2)cc1`, for the setting “in c1cc(-n2c3ccccc3c3ccccc32)cc(-n2c3ccccc3c3ccccc32)c1”, the fluorescence lifetime was found to be 6 ns.

For the compound `CCCCCCCCCCOc1cc2cc(C#Cc3ccc(/C=C(\C#N)C(=O)O)cc3)c(=O)oc2cc1OCCCCCCCCCC`, where the note is “in CC#N”, the fluorescence lifetime is 1.1 ns. `COc1nc(Cl)nc(Nc2ccc3c4cccc5cccc(c6cccc2c63)c54)n1` had a fluorescence lifetime (in CCOC(C)=O) of 3.5 ns and a fluorescence lifetime (in CS(C)=O) of 4 ns. Consider `CCCN1C(=O)C(=CC=CC=C2Oc3ccccc3N2CCCS(=O)(=O)[O-])C(=O)N(CCC)C1=S`, for which the fluorescence lifetime was found to be 0.854 ns (in CC(C)=O); 0.821 ns (in CCCCO); 0.465 ns (in CCO); 0.288 ns (in CO); 0.712 ns (in ClC(Cl)Cl).

As for `CCCCCCn1c2cc(C(=O)OCC)ccc2c2c1c1ccc(C(=O)OCC)cc1n2CCCCCC`, the fluorescence lifetime (in CCCO) stood at 6.3 ns.
